Key:
[1] = system: platelets; assay: Total platelet count in EDTA and CTAD tubes, MLSC; format: cell-based, human; conditions: in the tubes
Procedure: (§1) Staining for MLSC. For whole blood platelet stains, 10 μl of whole blood was diluted into 990 μl of Tyrode's buffer supplemented with 1.5 mM theophylline and 0.37 mM adenosine for a final dilution of 1:100. Twenty microliters of diluted whole blood, thrombin-stimulated samples, or control samples were added to 96 well micro-titer plates containing 5 μl of the appropriate reagent cocktail. The cells were incubated in the dark at room temperature for 20 minutes. At the end of the incubation, 50 μl of modified PBS/BSA buffer supplemented with theophylline (1.5 mM)/adenosine (0.37 mM) (to prevent activation), and Zwittergent (50 mM) was added to all the wells and mixed thoroughly. Twenty-one microliters of diluted sample was loaded into Flex32 capillary array and analyzed by Surroscan MLSC. The assays are performed in homogeneous mode, without removal of unbound reagent. […] Images were converted to flow cytometry standard (fcs) format with in-house software and analyzed with FlowJo™ cytometry analysis software (Tree Star, Inc., San Carlos, Calif.). Fluorescence intensities are compensated for spectral overlap of the dyes.
(§2) Previous research has shown that addition of platelet inhibitors to the anti-coagulant greatly reduces the activation state of human platelets prior to testing. […] The sample was then analyzed using MLSC. […]

[2] = system: platelet factor 4 (PF4); assay: Platelet factor 4 in plasma by chemiluminescent ELISA; parameters: species or system human
Procedure: Platelet Factor 4 was measured by chemiluminescent using ELISA. Antibodies were obtained from U.S. Biologicals (Swampscott, Mass.) and Affinity Biologicals Enzyme Research Lab. (Southbend, Ind.), recombinant standard from Chemicon (Temecula, Calif.). Briefly, Corning black opaque 96 well microtiter plates were coated with rabbit polyclonal anti-PF4 (human) overnight at 4° C. Plates were washed and samples or standards were added to the wells and allowed to incubate at room temperature. After washing, biotinylated polyclonal sheep anti-PF4 (human) was added followed by washing and the addition of avidin-alkaline Phosphatase. Plates were washed and the CDP-Star R (Tropix, Bedford, Mass.)) substrate added, allowed to develop and read on the Wallac Victor plate reader. The assay sensitivity of the assay is 20 pg/ml.
PF4 expression was determined by ELISA (sensitivity of 20 pg/ml).

[3] = system: platelets; assay: Pan platelet surface antigen expression (CD9, GPIIIA, GPIIB), EDTA versus CTAD samples, MLSC; format: cell-based, human
Procedure: as §1, §2

[4] = system: CD63 on platelets; assay: CD63 activation marker on platelets in unfixed whole blood drawn into EDTA or CTAD tubes, MLSC; format: cell-based, human; conditions: for Mean Intensity CD63: mean relative intensity, entire platelet population
Procedure: (§3) Staining for MLSC. For whole blood platelet stains, 10 μl of whole blood was diluted into 990 μl of Tyrode's buffer supplemented with 1.5 mM theophylline and 0.37 mM adenosine for a final dilution of 1:100. Twenty microliters of diluted whole blood, thrombin-stimulated samples, or control samples were added to 96 well micro-titer plates containing 5 μl of the appropriate reagent cocktail. The cells were incubated in the dark at room temperature for 20 minutes. At the end of the incubation, 50 μl of modified PBS/BSA buffer supplemented with theophylline (1.5 mM)/adenosine (0.37 mM) (to prevent activation), and Zwittergent (50 mM) was added to all the wells and mixed thoroughly. Twenty-one microliters of diluted sample was loaded into Flex32 capillary array and analyzed by Surroscan MLSC. The assays are performed in homogeneous mode, without removal of unbound reagent. After all dilutions, the fluorescent platelet counts per capillary are about 1,000-2,000, comfortably in the range of 10 to 12,000 that is appropriate for the cytometry. This platelet count level provides appropriate counting statistics and avoids coincident events. Images were converted to flow cytometry standard (fcs) format with in-house software and analyzed with FlowJo™ cytometry analysis software (Tree Star, Inc., San Carlos, Calif.). Fluorescence intensities are compensated for spectral overlap of the dyes.
(§4) Previous research has shown that addition of platelet inhibitors to the anti-coagulant greatly reduces the activation state of human platelets prior to testing. Kuhne et al., Am. J. Hematol. 50:40-5 (1995); Mody et al., Transfus.Med. 9:147-54 (1999). […] Blood was obtained from a volunteer (set of 5 volunteers) and processed within 4 hours. This was done without fixation in order to maintain epitope integrity and allow for further activation studies. The samples were incubated with antibodies against platelet surface activation markers CD62P and CD63, as well as antibodies against GPIIIA, an antigen present on all platelets. All platelets were identified with GPIIIa (Cy5.5). The sample was then analyzed using MLSC. Gates for the Cy5-CD62P and Cy5-CD63 positive events were drawn based upon MOPC-21 control antibody staining.

[5] = system: CD62P on platelets; assay: CD62P activation marker on platelets in unfixed whole blood drawn into EDTA or CTAD tubes, MLSC; format: cell-based, human; conditions: for Mean Intensity CD62P: mean relative intensity, entire platelet population
Procedure: as §3, §4

[6] = system: CD62P on platelets; assay: Platelet stimulation, CD62P expression by MLSC; format: cell-based, human
Procedure: Platelet stimulation. Thrombin stimulation was carried out on either washed platelets or 1:10 diluted whole blood in the presence of the fibrinogen cascade inhibitor peptide glycine-proline-arginine-proline (GPRP, 2 mM final concentration). Thrombin (5 U/ml) was added to 10 μl of sample in 75 μl Tyrode's buffer containing the GPRP (final total volume of 100 μl). Because the CTAD tubes contain reversible inhibitors of platelet activation, it was initially determined that a 10-fold dilution of the whole blood was sufficient to reduce the inhibitors below effective concentration and permit stimulation. […] Next, the reaction was incubated in a 37° C. water bath for 5 or 10 minutes and subsequently diluted to 1000 μl […] with Tyrode's buffer supplemented with 1.5 mM theophylline and 0.37 mM adenosine (final concentration). […]
Staining for MLSC. […] Twenty-one microliters of diluted sample was loaded into Flex32 capillary array and analyzed by Surroscan MLSC. […] Images were converted to flow cytometry standard (fcs) format with in-house software and analyzed with FlowJo™ cytometry analysis software (Tree Star, Inc., San Carlos, Calif.). Fluorescence intensities are compensated for spectral overlap of the dyes. […]

[7] = system: CD63 on platelets; assay: Platelet stimulation, CD63 expression by MLSC; format: cell-based, human
Procedure: Platelet stimulation. Thrombin stimulation was carried out on either washed platelets or 1:10 diluted whole blood in the presence of the fibrinogen cascade inhibitor peptide glycine-proline-arginine-proline (GPRP, 2 mM final concentration). Thrombin (5 U/ml) was added to 10 μl of sample in 75 μl Tyrode's buffer containing the GPRP (final total volume of 100 μl). Because the CTAD tubes contain reversible inhibitors of platelet activation, it was initially determined that a 10-fold dilution of the whole blood was sufficient to reduce the inhibitors below effective concentration and permit stimulation. […] Next, the reaction was incubated in a 37° C. water bath for 5 or 10 minutes and subsequently diluted to 1000 μl […] with Tyrode's buffer supplemented with 1.5 mM theophylline and 0.37 mM adenosine (final concentration). In order to stop the stimulation and prevent non-specific activation of the control and test samples caused by the handling and staining techniques, theophylline and adenosine were added to the samples. A control sample lacking only the thrombin was run in parallel.
as §1, with “At the end of the incubation, 50 μl of modified PBS/BSA buffer supplemented with theophylline (1.5 mM)/adenosine (0.37 mM) (to prevent activation), and Zwittergent (50 mM) was added to all the wells and mixed thoroughly.” left out, “MLSC.” for “MLSC. The assays are performed in homogeneous mode, without removal of unbound reagent.”, “dyes. […]” for “dyes.”

[8] = system: CD63 on platelets; conditions: thrombin; expected value; cited from earlier work
[9] = system: CD62P on platelets; conditions: thrombin; expected value; cited from earlier work
[10] = 24 hr from draw, average of 4 measurements
[11] = 48 hr from draw, average of 5 subjects
[12] = thrombin 5 U/ml, 5 minute activation, whole blood 1:10 with GPRP, average of 19 to 22 subjects

O=C(O)CN(CCN(CC(=O)O)CC(=O)O)CC(=O)O [EDTA, Ethylene-diamino-tetra-acetic acid]
change in total platelet count from 4 to 48 hours [1]: small but significant decrease | PF4 release, times greater in EDTA than in CTAD samples ([2]; EDTA relative to CTAD, p<0.05): 5 times | PF4 in plasma ([2]; average of 5 individuals, matched EDTA and CTAD draws): 627 ± 449 pg/mL | mean fluorescence intensity of GPIIB, lower in EDTA compared to CTAD ([3]; EDTA relative to CTAD): about 40% | differences in expression of pan surface antigens CD9 or GPIIIA on platelets ([3]; between EDTA and CTAD samples): no observable differences | % Positive CD63 [4, 10]: 37 ± 22% | Mean Intensity CD63 ([4]; 24 hr from draw): 690 ± 77 | % Positive CD63 [4, 11]: 15 ± 7.0 % | Mean Intensity CD63 ([4]; 48 hr from draw): 680 ± 42 | % Positive CD63 ([4]; <4 hr from draw, average of 5 subjects): 22 ± 20 % | Mean Intensity CD63 ([4]; <4 hr from draw): 760 ± 43 | % Positive CD62P [5, 10]: 49 ± 20 % | Mean Intensity CD62P ([5]; 24 hr from draw): 910 ± 130 | % Positive CD62P [5, 11]: 41 ± 4.8 % | Mean Intensity CD62P ([5]; 48 hr from draw): 900 ± 60 | Mean Intensity CD62P ([5]; <4 hr from draw): 1110 ± 230 | % Positive CD62P ([5]; <4 hr from draw, platelets identified with GPIIIA, average of 5 subjects): 37 ± 17 % | range of platelet activation levels observed ([5]; EDTA samples, all time points): 8 to 50% | platelets positive for CD62P ([5]; matched samples analyzed over 48 hours): 40-50%

thrombin
Observed CD62P positive platelets [6, 12]: 192,000 ± 53,000 platelets/μl | expression level of CD63 on platelets after stimulation ([7]; five minute stimulation with thrombin): greatly increased | Observed CD63 positive platelets [7, 12]: 142,000 ± 40,000 platelets/μl | % of total platelets expressing CD63 ([7]; thrombin activation (5 U/ml, 5 minute), CTAD whole blood): 72 ± 8.2% | Expected % CD63 positive [8]: >80% | Expected % CD62P positive [9]: >95%

Nc1ncnc2c1ncn2[C@@H]1O[C@H](COP(=O)(O)OP(=O)(O)O)[C@@H](O)[C@H]1O [ADP, adenosine diphosphate]
platelets expressing CD62P ([6]; 30-minute stimulation with ADP): greater than 60%

— US7387880B2, “Method for monitoring resting and activated platelets in unfixed blood samples” (PPD Biomarker Discovery Sciences, LLC, priority 2000, dated 2008)
